This is an account of results in PubChem BioAssay (NCI).

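Grown in 96-well plates, cells were treated for 48 hours with each compound at five concentrations. Insufficient inhibition: endpoint recorded as highest concentration tested. Here, GI50 denotes the concentration required for 50% inhibition of growth. TGI is the concentration that stops growth completely.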 Where a SMILES comes first, the peptide text is derived from it. The star is where a group is joined. Cbz = O=C(OCc1ccccc1)*

Common to all, as to assay: growth of human tumour cells (NCI), 48 h
Assay [1] deals with SK-MEL-2 melanoma.
For assay [2], the system named is A498 renal.
Assay [3] deals with HCT-116 colon.
Assay [4] has as its system UACC-62 melanoma.
The test system of assay [5] is SW-620 colon.
The test system of assay [6] is TK-10 renal.
The subject of assay [7] is BT-549 breast.
In assay [8] the test system is MDA-MB-435.
In assay [9] the test system is MDA-N.
Assay [10] concerns MDA-MB-231 breast.

Consider `O=C1CSC(C(N=Nc2ccc(Cl)cc2)c2nc3ccccc3[nH]2)=N1` (centres undefined), for which the TGI in assay [1] is 41.8 µM; in assay [2] it was over 100 µM; in assay [3], over 100 µM; in assay [4], over 100 µM; in [5], over 100 µM; in assay [6], over 100 µM.
For `COc1cc2cc(C(=O)N3CC(CCl)c4c3cc(O)c3ccccc43)[nH]c2c(OC)c1OC` (centres undefined), the TGI in assay [1] is under 0.005 µM; in [2] it was 0.82 µM; in assay [7], 9.94 µM; in assay [3], 5.85 µM; in assay [4], 0.291 µM; in assay [5], over 50 µM. The TGI in assay [6] is over 50 µM.
On to `CCCCc1c2c(nc3c1CC/C(=C\c1ccc([N+](=O)[O-])cc1)C3=O)CCCC2`, for which the TGI was found to be 3.22 µM in assay [3], 3 µM in assay [4], 3.53 µM in assay [5] and 3.17 µM in assay [6].
With `COc1cc2cc3c4c(cc(OC)c(OC)c4c2cc1OC)CCN3C(=O)CCC(=O)O`, the TGI in assay [1], in assay [2], in [3], in assay [4], in assay [5] and in assay [6] was over 100 µM each time.
As to `Cc1c(-c2ccc(O)c(O)c2)oc(=O)c2c(O)cccc12`, the TGI in [8] amounted to 12.3 µM; in assay [1], 28 µM; in assay [2], 33.1 µM; in assay [7], 44.6 µM; in assay [3] it was 20 µM; in assay [5], 61.2 µM. Further, the TGI in assay [6] came out at 67 µM.
For the compound `Cc1ccc([N+](=O)[O-])cc1S(=O)(=O)Nc1ccc(C2=NN(S(=O)(=O)c3cc([N+](=O)[O-])ccc3C)C(c3ccco3)C2)cc1` (centres undefined), the TGI in assay [8] is over 100 µM; in assay [1], over 100 µM; in [7], 97.5 µM; in assay [3], over 100 µM; in assay [4] it was over 100 µM; in assay [5], over 100 µM. In assay [9], this compound gave a TGI of over 100 µM.
Turning to `CC(C)N(/C(F)=N\C(=O)Nc1ccccc1C(F)(F)F)C(C)C`, the TGI was over 100 µM in [10]; 78.5 µM in assay [1]; over 100 µM in assay [3]; over 100 µM in assay [5]; over 100 µM in assay [6]; over 100 µM in assay [9].
As to `CC(C)[C@](O)(C(=O)OCC1=CCN2CC[C@@H](O)[C@@H]12)[C@H](C)O`, the TGI in assay [1] is over 375 µM; in assay [2], over 375 µM; in assay [3], over 375 µM; in [4], over 375 µM; in [5], over 237 µM.
Regarding `CCN(CC)CC(=O)Nc1ccc2c(c1)C(=O)c1ccc(NC(=O)CN(CC)CC)cc1C2=O`, the TGI in assay [1] was over 100 µM; in [2], over 100 µM; in [3], 30.5 µM; in assay [4], over 100 µM; in assay [5] it was 69.8 µM; in assay [6], over 100 µM.
For the compound `NC(C(=O)OC(=O)c1ccccc1)C(=O)OC(=O)c1ccccc1`, the TGI in assay [10], in assay [8], in assay [1], in assay [2], in [7] and in [3] was over 100 µM throughout. Further, the TGI in assay [5] and in [6] was over 100 µM in each case.
Consider `CC(=O)C1=C(C)N(c2ccccc2)C2(O)C=CC(=O)C3=C(O)c4ccccc4C(=O)C312` (centres undefined), for which the TGI in assay [10] is 51 µM; in assay [8], 5.19 µM; in assay [1] it was 39.2 µM; in [2], 39.4 µM; in assay [7], 31.8 µM; in assay [3], over 100 µM. For the same compound, the TGI in assay [4] is 34.1 µM; in assay [5], over 100 µM; in [6], 46.2 µM.
For the compound `CN(C)Cc1cc(C(=O)/C=C/c2ccc(F)cc2)cc(CN(C)C)c1O`, the TGI in assay [10] is over 100 µM; in assay [8], 38.9 µM; in assay [2], 94.8 µM; in [3], 27 µM; in assay [4], 8.98 µM; in assay [5], 75.5 µM. Besides, the TGI in [6] is over 100 µM.
Regarding `COc1ccc(-c2nc3c(nc2-c2ccc(OC)cc2)N(C)S(=O)(=O)N=C3N)cc1`, the TGI in assay [1] is 57.7 µM; in assay [2], over 100 µM; in assay [3], 30.7 µM; in assay [4], 94.3 µM; in assay [5] it was over 100 µM; in [6] it was over 100 µM.
For the compound `Cc1cc(C)c(C(=O)/C=C/c2ccccc2)c(C)c1`, the TGI in assay [1] was 30.8 µM; in assay [3], 78.2 µM; in assay [4], over 100 µM; in [5], 48.1 µM; in assay [6], over 100 µM.
As to `CCCCS(=O)CC(CO)NC(=O)/C=C/c1c(C)[nH]c(=O)[nH]c1=O` (centres undefined), the TGI worked out at 23.4 µM in assay [1]; 32.5 µM in [2]; 88.2 µM in assay [3]; 32 µM in assay [4]; 152 µM in assay [5].
Regarding `COc1ccc2c(c1)CCN1C3=C(CCC3)C(=O)C[C@@H]21`, the TGI in assay [1], in assay [2], in assay [3], in assay [4], in [5] and in assay [6] was over 100 µM each time.
As for `Cn1c(=O)c2nc(NCCO)cnc2n(C)c1=O`, the TGI in assay [1], in assay [2], in assay [3], in assay [4], in assay [5] and in assay [6] was over 100 µM each time.
For the compound `Clc1cccc2c1OCC1C(c3ccccc3)=NN(c3ccccc3)C21` (centres undefined), the TGI in [1], in assay [2], in [3], in assay [5] and in [6] was over 100 µM in each case.
For `CCOC(=O)CNC(=O)C(C)NC(=O)C(NC(=O)OCc1ccccc1)C(C)C` (stereo not drawn) (Cbz-Val-Ala-Gly-OEt; configuration not given here), the TGI in assay [8], in assay [1], in assay [7], in assay [3], in assay [4] and in assay [5] was over 100 µM each time. Besides, the TGI in [6] and in assay [9] was over 100 µM each time.
As for `O=C1CCCN1CCCN=c1cc2n(-c3ccc(Cl)cc3)c3ccccc3nc-2cc1Nc1ccc(Cl)cc1`, the TGI in assay [1] came out at 30.7 µM; in assay [2] it was 43.2 µM; in [3], 25.3 µM; in assay [4], 26.2 µM; in [5], 68.5 µM.
Take `O=[N+]([O-])c1ccc(COc2cccc3cccnc23)cc1`: the TGI is over 100 µM in assay [1]; 79.2 µM in [2]; over 100 µM in assay [3]; 45.2 µM in assay [4]; 52.5 µM in [6].
Turning to `C[C@]12CCc3sc(-c4cccc(F)c4)nc3C1=CC[C@@H]1[C@@H]2CC[C@]2(C)C(=O)CC[C@@H]12`, the GI50 in assay [10] was 2.6 µM; in assay [8], 2.97 µM; in [1], 2.74 µM; in [2], 3.2 µM; in assay [7], 2.2 µM; in assay [3], 1.73 µM. For the same compound, the results for the GI50 in assay [4] and in [6] were 1.9 µM and 2.77 µM, respectively. The TGI was 7.34 µM in [10]; over 100 µM in [8]; 10.7 µM in assay [1]; 17.9 µM in assay [2]; 8.06 µM in [7]; 3.56 µM in assay [3]. In addition, the TGI in assay [4] is 5.7 µM; in [6], 8.29 µM.
Take `O=C1CCCC2=C1CC1=C(CCCC1=O)N2c1cccc([N+](=O)[O-])c1`: the TGI in assay [2], in assay [7], in [4], in assay [5] and in assay [6] was over 100 µM in each case.
`COc1ccc(-c2nc3cc(C(F)(F)F)ccc3n2CC2CCCN3CCCCC23)cc1` (centres undefined): the TGI in assay [10] is 27.7 µM; in [8], 34.3 µM; in assay [1], 28.9 µM; in assay [2], 26.2 µM; in [3], 33.6 µM; in [5], 28.5 µM. For the same compound, the TGI was found to be 30.2 µM in assay [6] and 33.4 µM in [9].
With `CCc1c(C)c2ccc(OCC(=O)N=Nc3c(O)[nH]c4ccccc34)c(C)c2oc1=O`, the GI50 in assay [1] is over 33.3 µM; in assay [2], over 33.3 µM; in [7], 0.817 µM; in assay [6] it was over 33.3 µM. The TGI in assay [1] was over 33.3 µM; in assay [2], over 33.3 µM; in assay [7], 2.1 µM; in assay [4] it was over 33.3 µM; in [6] it was over 33.3 µM.
In the case of `O=[p+]1c2ccccc2[nH]c2ccccc21`, the TGI in assay [10], in assay [8], in assay [1], in assay [2], in assay [3] and in assay [4] was over 100 µM throughout. For the same compound, the TGI in assay [5], in assay [6] and in assay [9] was over 100 µM in each case.
Consider `O=[N+]([O-])c1ccc(O)c(C=NCC2CCCN3CCCCC23)c1` (centres undefined), for which the TGI in assay [10] was over 100 µM; in assay [7], over 100 µM; in assay [3] it was over 100 µM; in assay [4], 78.8 µM; in [6] it was over 100 µM; in [9] it was over 100 µM.
For the compound `O=S(=O)(O)c1ccccc1N=Nc1ccc(N=Nc2c(O)ccc3ccccc23)c(S(=O)(=O)O)c1`, the TGI in assay [10], in assay [8], in assay [1], in assay [7], in [3] and in [4] was over 100 µM in each case. For the same compound, the TGI in [5] and in assay [6] was over 100 µM in each case.
For the compound `Cc1ccc(C)c(COCCOCn2c(=O)[nH]c(=O)c3cc(Br)ccc32)c1`, the TGI in assay [10], in [8], in [1], in [2], in assay [3] and in assay [4] was over 100 µM each time. Further, the TGI in assay [5], in [6] and in [9] was over 100 µM throughout.
Turning to `COC(=O)C1C(O)C(C)C(O)OC1C(C)C(O)C(C)/C=C\C=C(/C)C(=O)Nc1c(C)c(OC(C)=O)c2c(c1O)C(=O)C(C)=C1OCOC(/C(C)=C/C(C)=O)=C12` (centres undefined), the TGI was determined as 20.9 µM in assay [1]; 30.6 µM in assay [2]; 19.9 µM in assay [3]; 31.1 µM in [4]; 20.4 µM in assay [5].
As to `CC(=O)OC1[C@H](n2ccnc2)C[C@H]2[C@@H]3CC=C4CC(N5CCCC5)CC[C@]4(C)[C@H]3CC[C@]12C` (some centres undefined), the TGI was over 100 µM in assay [10]; over 100 µM in assay [8]; 54.7 µM in assay [1]; over 100 µM in assay [2]; over 100 µM in assay [3]; 82.3 µM in [4]. Further, the TGI in assay [5], in assay [6] and in [9] was over 100 µM each time.
Regarding `Brc1ccc(-c2cc(-c3ccc4c(c3)OCO4)c(-c3cccs3)n2Cc2ccccc2)cc1`, the TGI in [10], in [8], in [1], in assay [3], in assay [4] and in [5] was over 100 µM each time. The TGI in assay [6] and in assay [9] was over 100 µM in each case.
Regarding `O=C(c1ccccc1)c1nn(-c2ccccc2)c2nc3nc(-c4ccccc4)cc(=O)n3nc12`, the GI50 in assay [10] was 26.2 µM; in assay [8], 18.1 µM; in [1], 23.8 µM; in assay [2] it was 44.8 µM; in assay [7] it was 21.2 µM; in assay [3] it was 14.6 µM. Besides, the GI50 in assay [4] was 29.4 µM; in assay [5], 33.1 µM; in assay [6], 40.3 µM. In addition, the TGI in assay [10] was over 100 µM; in assay [8], 48.3 µM; in assay [1], 65.6 µM; in [2], over 100 µM; in assay [7] it was 52.2 µM; in assay [3], 28 µM. For the same compound, the values for the TGI in assay [4], in assay [5] and in assay [6] were 89.2 µM, over 100 µM and over 100 µM, respectively.
